Measurements as given in patent US4451575A, “Activators for Ziegler type polymerization catalysts using bis(trichloromethyl) sulfone” (Uniroyal, Inc., priority 1982, dated 1984).

Tests used:
eye = assay: Eye irritation
Acute Oral LD50 = conditions: rat, in vivo
rabbit skin = assay: Primary Skin Irritation

| Compound | Ames Test, mutagenicity (Ames Test (mutagenicity)) | Eye irritation (eye; left in without washout) | Eye irritation (eye; material washed out 4 seconds after introduction) | LD50 (Acute Oral LD50) | Primary Skin Irritation (rabbit skin) |
| --- | --- | --- | --- | --- | --- |
| CCCCOC(=O)C1(Cl)OC(Cl)C(Cl)C1Cl (stereo not drawn) [UKU, Butyl 2,3,4,5-Tetrachloro-2,3,4,5, Tetrahydro-2-Furoate] | negative |  |  |  |  |
| O=C(OCC1(Cl)OC(Cl)C(Cl)C1Cl)C1(Cl)OC(Cl)C(Cl)C1Cl (stereo not drawn) [ZXU, Tetrachlorotetrahydrofurfuryl Tetrachlorotetrahydrofuroate] | negative | severe irritant | Mild irritant | 1100 ± 150 mg/kg | Moderate irritant |
